Laboratory results as given in US12371454B2, “Cyclic peptide compound having Kras inhibitory action” (priority 2019, dated 2025).
Starred links: 1 amine or outer side, 2 acyl side, 3 side chain; linkers in the order of their positions; H or OH if unused. Positions of bridges follow the written chain, without caps; N, C: chain ends. Non-standard residues stand in square brackets, D forms with d. Residues, ends and D or L forms follow the SMILES beside them. *: point of attachment. NMeAbu(3,3-F2-piperidino) = CN[C@@H](CCN1CCCC(F)(F)C1)C(=O)O; hPhe(3-Cl-4-CF3) = N[C@@H](CCc1ccc(C(F)(F)F)c(Cl)c1)C(=O)O; hPhe(3,4-Cl2) = N[C@@H](CCc1ccc(Cl)c(Cl)c1)C(=O)O; NMePhe(4-CN) = CN[C@@H](Cc1ccc(C#N)cc1)C(=O)O; NMePhe(4-Cl) = CN[C@@H](Cc1ccc(Cl)cc1)C(=O)O; NMePhe(4-Me) = CN[C@@H](Cc1ccc(C)cc1)C(=O)O; hPhe(4-Cl) = N[C@@H](CCc1ccc(Cl)cc1)C(=O)O; NMedβ3hAla = C[C@H](CC(=O)[*:2])N(C)[*:1]; NMeAla(cPent) = CN[C@@H](CC1CCCC1)C(=O)O; NMeGly(cPent) = CN[C@H](C(=O)O)C1CCCC1; NMeGly(cBu) = CN[C@H](C(=O)O)C1CCC1; NMeCha = CN[C@@H](CC1CCCCC1)C(=O)O; NMeCba = CN[C@@H](CC1CCC1)C(=O)O; NMeChg = CN[C@H](C(=O)O)C1CCCCC1; NMeF = CN[C@@H](Cc1ccccc1)C(=O)O; NMeI = CC[C@H](C)[C@H](NC)C(=O)O; NMeD = CN[C@@H](CC(=O)O)C(=O)O; NMeL = CN[C@@H](CC(C)C)C(=O)O; NPrAla = CCCN[C@@H](C)C(=O)O; NMeV = CN[C@H](C(=O)O)C(C)C; d(β3hA) = C[C@@H](N)CC(=O)O; NMeS = CN[C@@H](CO)C(=O)O; Morpholide = C1CN(*)CCO1; NMeA = CN[C@@H](C)C(=O)O; Piperidide = C1CCN(*)CC1; Ac5c = NC1(C(=O)O)CCCC1; Aze = O=C(O)[C@@H]1CCN1; Ac4c = NC1(C(=O)O)CCC1; Cyclobutyl = C1CC(*)C1; Sar = CNCC(=O)O; Propyl = CCC*

Tests used:
[1] = target: T1, Kras and SOS1 (biotin-tagged human Kras loaded with GDP, His-tagged human SOS1) (Homo sapiens, UniProt P01116, G12D); test: Protein-protein interaction inhibition between Kras and SOS1 (KrasGl2D-SOS PPI) using AlphaScreen; format: binding; conditions: AlphaScreen; biotin-tagged human Kras loaded with GDP, His-tagged human SOS1; read-out: KRAS G12D-SOS PPI IC50
T1 construct: made in house; host or cells: E. coli (stated for Kras only)
How it was run: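 Kras was produced in E. coli, purified, then loaded with GDP. It was paired via streptavidin acceptor beads with His-SOS1 held on nickel donor beads, and proximity signal at 520-620 nm was read after 680 nm illumination.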

[2] = tested on: Human pancreatic cancer cell line AsPC-1; test: Measurement of AsPC-1 cell growth inhibition (AsPC-1 CGI); format: cell-based; conditions: 96 h
How it was run: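 AsPC-1 cells in 15% FBS RPMI-1640 were exposed to test compound for 96 hours at 37° C, with CellTiter-Glo as endpoint.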

T1 sequence (P01116 1-188 isoform P01116-2 G12D): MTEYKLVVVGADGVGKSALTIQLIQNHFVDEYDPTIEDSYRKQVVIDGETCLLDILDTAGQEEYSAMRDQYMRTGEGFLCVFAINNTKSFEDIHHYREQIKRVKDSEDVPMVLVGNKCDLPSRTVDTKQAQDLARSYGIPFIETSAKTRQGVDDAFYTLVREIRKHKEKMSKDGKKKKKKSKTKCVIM

## CCCN1C(=O)C[C@@H](C)N(C)C(=O)[C@H](C(C)C)N(C)C(=O)C2(CCCC2)NC(=O)[C@@H]2CCCN2C(=O)[C@H](CCc2ccc(C(F)(F)F)c(Cl)c2)NC(=O)CN(C)C(=O)[C@H](CC2CCCCC2)N(C)C(=O)CN(C)C(=O)CN(C)C(=O)[C@H]([C@@H](C)CC)NC(=O)[C@@H]1C [Compound 824] (cyclo([Ac5c][NMeV][NMedβ3hAla][NPrAla]I[Sar][Sar][NMeCha][Sar][hPhe(3-Cl-4-CF3)]P))
[1]
  IC50: 5.6 nM
[2]
  IC50: 100 to 500 nM

## CC[C@H](C)[C@@H]1NC(=O)[C@H](C)N(C)C(=O)C[C@@H](C(=O)N2CCCCC2)N(C)C(=O)[C@H](C2CCCCC2)N(C)C(=O)C2(CCCC2)NC(=O)[C@@H]2CCCN2C(=O)[C@H](CCc2ccc(Cl)c(Cl)c2)NC(=O)CN(C)C(=O)[C@H](CC2CCCCC2)N(C)C(=O)CN(C)C(=O)CN(C)C1=O [Compound 825] ([NMeA]I[Sar][Sar][NMeCha][Sar][hPhe(3,4-Cl2)]P[Ac5c][NMeChg][NMeD]-Piperidide; lactam N-11)
[1]
  IC50: 0.35 nM
[2]
  IC50: 50 to 100 nM

## CC[C@H](C)[C@@H]1NC(=O)[C@H](CC(C)C)N(C)C(=O)C[C@@H](C)N(C)C(=O)[C@H](C(C)C)N(C)C(=O)C2(CCC2)NC(=O)[C@@H]2CCCN2C(=O)[C@H](CCc2ccc(C(F)(F)F)c(Cl)c2)NC(=O)CN(C)C(=O)[C@H](CC2CCCCC2)N(C)C(=O)CN(C)C(=O)CN(C)C1=O [Compound 837] (cyclo([Ac4c][NMeV][NMedβ3hAla][NMeL]I[Sar][Sar][NMeCha][Sar][hPhe(3-Cl-4-CF3)]P))
[1]
  IC50: 6 nM
[2]
  IC50: 50 to 100 nM

## CC[C@H](C)[C@@H]1NC(=O)[C@H](CC(C)C)N(C)C(=O)C[C@@H](C(=O)N(C)C)N(C)C(=O)[C@H]([C@@H](C)CC)N(C)C(=O)C2(CCCC2)NC(=O)[C@H](Cc2ccc(Cl)cc2)N(C)C(=O)[C@H](CCc2ccc(C(F)(F)F)c(Cl)c2)NC(=O)CN(C)C(=O)[C@H](Cc2ccc(C)cc2)N(C)C(=O)[C@@H]2CCN2C(=O)[C@H](C)N(C)C1=O [Compound 838] ([NMeL]I[NMeA][Aze][NMePhe(4-Me)][Sar][hPhe(3-Cl-4-CF3)][NMePhe(4-Cl)][Ac5c][NMeI][NMeD]-NMe2; lactam N-11)
[1]
  IC50: 10 nM
[2]
  IC50: 100 to 500 nM

## CC[C@H](C)[C@@H]1NC(=O)[C@H](CC(C)C)N(C)C(=O)C[C@@H](C)N(C)C(=O)[C@H](C2CCC2)N(C)C(=O)C2(CCCC2)NC(=O)[C@@H]2CCCN2C(=O)[C@H](CCc2ccc(C(F)(F)F)c(Cl)c2)NC(=O)CN(C)C(=O)[C@H](CC2CCCCC2)N(C)C(=O)CN(C)C(=O)CN(C)C1=O [Compound 845] (cyclo([Ac5c][NMeGly(cBu)][NMedβ3hAla][NMeL]I[Sar][Sar][NMeCha][Sar][hPhe(3-Cl-4-CF3)]P))
[1]
  IC50: 8.2 nM
[2]
  IC50: 50 to 100 nM

## CC[C@H](C)[C@@H]1NC(=O)[C@H](C2CCCCC2)N(C)C(=O)C[C@@H](C(=O)N2CCCCC2)N(C)C(=O)[C@H](C2CCCCC2)N(C)C(=O)C2(CCCC2)NC(=O)[C@@H]2CCCN2C(=O)[C@H](CCc2ccc(C(F)(F)F)c(Cl)c2)NC(=O)CN(C)C(=O)[C@H](CC2CCCCC2)N(C)C(=O)CN(C)C(=O)CN(C)C1=O [Compound 849] ([NMeChg]I[Sar][Sar][NMeCha][Sar][hPhe(3-Cl-4-CF3)]P[Ac5c][NMeChg][NMeD]-Piperidide; lactam N-11)
[1]
  IC50: 1.9 nM
[2]
  IC50: 100 to 500 nM

## CCCOC[C@H]1C(=O)N(C)CC(=O)N[C@@H](CCc2ccc(C(F)(F)F)c(Cl)c2)C(=O)N2CCC[C@H]2C(=O)NC2(CCCC2)C(=O)N(C)[C@@H](C2CCCCC2)C(=O)N(C)[C@H](C(=O)N2CCOCC2)CC(=O)N(C)[C@@H](C2CCC2)C(=O)N[C@@H]([C@@H](C)CC)C(=O)N(C)CC(=O)N(C)CC(=O)N1C [Compound 853] ([NMeGly(cBu)]I[Sar][Sar][NMeS](Propyl)[Sar][hPhe(3-Cl-4-CF3)]P[Ac5c][NMeChg][NMeD]-Morpholide; lactam N-11)
[1]
  IC50: 0.62 nM
[2]
  IC50: 100 to 500 nM

## CC[C@H](C)[C@@H]1NC(=O)[C@H](CC(C)C)N(C)C(=O)C[C@@H](C(=O)N(C)C)N(C)C(=O)[C@H](C2CCCC2)N(C)C(=O)C2(CCCC2)NC(=O)[C@H](Cc2ccccc2)N(C)C(=O)[C@H](CCc2ccc(C(F)(F)F)c(Cl)c2)NC(=O)CN(C)C(=O)[C@H](CC2CCCCC2)N(C)C(=O)[C@@H]2CCN2C(=O)[C@H](C)N(C)C1=O [Compound 854] ([NMeL]I[NMeA][Aze][NMeCha][Sar][hPhe(3-Cl-4-CF3)][NMeF][Ac5c][NMeGly(cPent)][NMeD]-NMe2; lactam N-11)
[1]
  IC50: 11 nM
[2]
  IC50: 100 to 500 nM

## CC[C@H](C)[C@@H]1NC(=O)[C@H](CC(C)C)N(C)C(=O)C[C@@H](C(=O)N2CCCCC2)N(C)C(=O)[C@H](C(C)C)N(C)C(=O)C2(CCCC2)NC(=O)[C@@H]2CCCN2C(=O)[C@H](CCc2ccc(C(F)(F)F)c(Cl)c2)NC(=O)CN(C)C(=O)[C@H](COC2CCC2)N(C)C(=O)[C@@H]2CCN2C(=O)[C@H](C)N(C)C1=O [Compound 880] ([NMeL]I[NMeA][Aze][NMeS](Cyclobutyl)[Sar][hPhe(3-Cl-4-CF3)]P[Ac5c][NMeV][NMeD]-Piperidide; lactam N-11)
[1]
  IC50: 2.9 nM
[2]
  IC50: 100 to 500 nM

## CC[C@H](C)[C@@H]1NC(=O)[C@H](CC(C)C)N(C)C(=O)C[C@@H](C)N(C)C(=O)[C@H](C(C)C)N(C)C(=O)C2(CCCC2)NC(=O)[C@@H]2CCCN2C(=O)[C@H](CCc2ccc(C(F)(F)F)c(Cl)c2)NC(=O)CN(C)C(=O)[C@H](Cc2ccc(C#N)cc2)N(C)C(=O)CN(C)C(=O)CN(C)C1=O [Compound 888] (cyclo([Ac5c][NMeV][NMedβ3hAla][NMeL]I[Sar][Sar][NMePhe(4-CN)][Sar][hPhe(3-Cl-4-CF3)]P))
[1]
  IC50: 3.9 nM
[2]
  IC50: 100 to 500 nM

## CC[C@H](C)[C@@H]1NC(=O)[C@H](C2CCC2)N(C)C(=O)C[C@@H](C(=O)N2CCOCC2)N(C)C(=O)[C@H](C2CCCCC2)N(C)C(=O)C2(CCCC2)NC(=O)[C@@H]2CCCN2C(=O)[C@H](CCc2ccc(C(F)(F)F)c(Cl)c2)NC(=O)CN(C)C(=O)[C@H](CC2CCCCC2)N(C)C(=O)CN(C)C(=O)CN(C)C1=O [Compound 890] ([NMeGly(cBu)]I[Sar][Sar][NMeCha][Sar][hPhe(3-Cl-4-CF3)]P[Ac5c][NMeChg][NMeD]-Morpholide; lactam N-11)
[1]
  IC50: 0.47 nM
[2]
  IC50: 20 to 50 nM

## CC[C@H](C)[C@@H]1NC(=O)[C@H](CC(C)C)N(C)C(=O)C[C@@H](C(=O)N2CCCCC2)N(C)C(=O)[C@H](C(C)C)N(C)C(=O)C2(CCCC2)NC(=O)[C@@H]2CCCN2C(=O)[C@H](CCc2ccc(Cl)cc2)NC(=O)CN(C)C(=O)[C@H](CC2CCCCC2)N(C)C(=O)CN(C)C(=O)CN(C)C1=O [Compound 893] ([NMeL]I[Sar][Sar][NMeCha][Sar][hPhe(4-Cl)]P[Ac5c][NMeV][NMeD]-Piperidide; lactam N-11)
[1]
  IC50: 21 nM
[2]
  IC50: 100 to 500 nM

## CC[C@H](C)[C@@H]1NC(=O)[C@H](CC2CCCC2)N(C)C(=O)C[C@@H](C)NC(=O)[C@H](C(C)C)N(C)C(=O)C2(CCCC2)NC(=O)[C@@H]2CCCN2C(=O)[C@H](CCc2ccc(C(F)(F)F)c(Cl)c2)NC(=O)CN(C)C(=O)[C@H](CC2CCCCC2)N(C)C(=O)CN(C)C(=O)CN(C)C1=O [Compound 901] (cyclo([Ac5c][NMeV][d(β3hA)][NMeAla(cPent)]I[Sar][Sar][NMeCha][Sar][hPhe(3-Cl-4-CF3)]P))
[1]
  IC50: 35 nM
[2]
  IC50: 100 to 500 nM

## CC[C@H](C)[C@@H]1NC(=O)[C@H](CC(C)C)N(C)C(=O)C[C@@H](C)N(C)C(=O)[C@H]([C@@H](C)CC)N(C)C(=O)C2(CCCC2)NC(=O)[C@@H]2CCCN2C(=O)[C@H](CCc2ccc(C(F)(F)F)c(Cl)c2)NC(=O)CN(C)C(=O)[C@H](CC2CCCCC2)N(C)C(=O)CN(C)C(=O)CN(C)C1=O [Compound 904] (cyclo([Ac5c][NMeI][NMedβ3hAla][NMeL]I[Sar][Sar][NMeCha][Sar][hPhe(3-Cl-4-CF3)]P))
[1]
  IC50: 7.3 nM
[2]
  IC50: 50 to 100 nM

## CC[C@H](C)[C@@H]1NC(=O)[C@H](CC(C)C)N(C)C(=O)C[C@@H](C(=O)N(C)C)N(C)C(=O)[C@H](C2CCCC2)N(C)C(=O)C2(CCCC2)NC(=O)[C@H](CCN2CCCC(F)(F)C2)N(C)C(=O)[C@H](CCc2ccc(C(F)(F)F)c(Cl)c2)NC(=O)CN(C)C(=O)[C@H](CC2CCCCC2)N(C)C(=O)[C@@H]2CCN2C(=O)[C@H](C)N(C)C1=O [Compound 910] ([NMeL]I[NMeA][Aze][NMeCha][Sar][hPhe(3-Cl-4-CF3)][NMeAbu(3,3-F2-piperidino)][Ac5c][NMeGly(cPent)][NMeD]-NMe2; lactam N-11)
[1]
  IC50: 4.3 nM
[2]
  IC50: 100 to 500 nM

## CC[C@H](C)[C@@H]1NC(=O)[C@H](CC2CCC2)N(C)C(=O)C[C@@H](C(=O)N2CCCCC2)N(C)C(=O)[C@H](C(C)C)N(C)C(=O)C2(CCCC2)NC(=O)[C@@H]2CCCN2C(=O)[C@H](CCc2ccc(C(F)(F)F)c(Cl)c2)NC(=O)CN(C)C(=O)[C@H](CC2CCCCC2)N(C)C(=O)CN(C)C(=O)CN(C)C1=O [Compound 911] ([NMeCba]I[Sar][Sar][NMeCha][Sar][hPhe(3-Cl-4-CF3)]P[Ac5c][NMeV][NMeD]-Piperidide; lactam N-11)
[1]
  IC50: 4.5 nM
[2]
  IC50: 100 to 500 nM
